Measurements reported in the NIST ThermoML archive (doi:10.1021/je300345m).
± gives the expanded uncertainty stated by the source.

Assay: xn = mol fraction of the nth substance listed
Settings: Liquid, Vibrating tube method

OCCNCCO [diethanolamine] + O
mass density [kg/m3]
Settings	x1 = 0.0684	x1 = 0.1025	x1 = 0.1463	x1 = 0.2045	x1 = 0.2856	x1 = 0.4067	x1 = 0.6066	x1 = 1
298.15 K, 100 kPa	1034 ± 3.5	1047.2 ± 3.5	1059.5 ± 3.5	1071.4 ± 3.5	1081 ± 3.5	1088 ± 3.5	1092.2 ± 3.5	1093.6 ± 3.6
303.15 K, 100 kPa	1031.8 ± 3.5	1044.8 ± 3.5	1056.9 ± 3.5	1068.5 ± 3.5	1077.9 ± 3.5	1085 ± 3.5	1088.9 ± 3.5	1090.4 ± 3.6
308.15 K, 100 kPa	1029.7 ± 3.5	1042.4 ± 3.5	1054.2 ± 3.5	1065.6 ± 3.5	1074.9 ± 3.5	1081.8 ± 3.5	1085.8 ± 3.5	1087.1 ± 3.6
313.15 K, 100 kPa	1027.2 ± 3.5	1039.6 ± 3.5	1051.3 ± 3.5	1062.6 ± 3.5	1071.7 ± 3.5	1078.7 ± 3.5	1082.7 ± 3.5	1083.8 ± 3.6
318.15 K, 100 kPa	1024.9 ± 3.5	1037 ± 3.5	1048.4 ± 3.5	1059.5 ± 3.5	1068.6 ± 3.5	1075.5 ± 3.5	1079.5 ± 3.5	1080.6 ± 3.6
323.15 K, 100 kPa	1022.2 ± 3.5	1034.2 ± 3.5	1045.4 ± 3.5	1056.6 ± 3.5	1065.3 ± 3.5	1072.2 ± 3.5	1076.2 ± 3.5	1077.4 ± 3.6
328.15 K, 100 kPa	1019.5 ± 3.5	1031.4 ± 3.5	1042.4 ± 3.5	1053.2 ± 3.5	1062.1 ± 3.5	1068.9 ± 3.5	1073 ± 3.5	1074.1 ± 3.6
333.15 K, 100 kPa	1016.6 ± 3.5	1028.3 ± 3.5	1039.2 ± 3.5	1049.9 ± 3.5	1058.8 ± 3.5	1065.6 ± 3.5	1069.6 ± 3.5	1070.8 ± 3.6
338.15 K, 100 kPa	1013.8 ± 3.5	1025.2 ± 3.5	1036 ± 3.5	1046.5 ± 3.5	1055.3 ± 3.5	1062.2 ± 3.5	1066.3 ± 3.5	1067.4 ± 3.6
343.15 K, 100 kPa	1010.6 ± 3.5	1022 ± 3.5	1032.6 ± 3.5	1043.1 ± 3.5	1051.8 ± 3.5	1058.8 ± 3.5	1062.9 ± 3.5	1064 ± 3.6
348.15 K, 100 kPa	1007.5 ± 3.5	1018.8 ± 3.5	1029.3 ± 3.5	1039.7 ± 3.5	1048.3 ± 3.5	1055.3 ± 3.5	1059.4 ± 3.5	1060.6 ± 3.6
353.15 K, 100 kPa	1004.2 ± 3.5	1015.3 ± 3.5	1025.8 ± 3.5	1036 ± 3.5	1044.8 ± 3.5	1051.7 ± 3.5	1055.9 ± 3.5	1057.2 ± 3.6
358.15 K, 100 kPa	1000.8 ± 3.5	1011.9 ± 3.5	1022.3 ± 3.5	1032.5 ± 3.5	1041.1 ± 3.5	1048 ± 3.5	1052.4 ± 3.5	1053.7 ± 3.6
363.15 K, 100 kPa	997.3 ± 3.5	1008.3 ± 3.5	1018.6 ± 3.5	1028.7 ± 3.5	1037.2 ± 3.5	1044.4 ± 3.5	1048.8 ± 3.5	1050.1 ± 3.6
373.15 K, 700 kPa	990.2 ± 3.5	1000.9 ± 3.5	1011.5 ± 3.5	1021.2 ± 3.5	1029.9 ± 3.5	1037.2 ± 3.5	1041.8 ± 3.5	1043.3 ± 3.6
383.15 K, 700 kPa	982.3 ± 3.5	992.9 ± 3.5	1003.3 ± 3.5	1012.9 ± 3.5	1021.7 ± 3.5	1028.9 ± 3.5	1033.8 ± 3.5	1035.5 ± 3.6
393.15 K, 700 kPa	974.2 ± 3.5	984.7 ± 3.5	995.1 ± 3.5	1004.7 ± 3.5	1013.5 ± 3.5	1020.9 ± 3.5	1026 ± 3.5	1028.1 ± 3.6
403.15 K, 700 kPa	965.8 ± 3.5	976.3 ± 3.5	986.7 ± 3.5	996.2 ± 3.5	1005.1 ± 3.5	1012.8 ± 3.5	1018.2 ± 3.5	1020.5 ± 3.6
413.15 K, 700 kPa	957.1 ± 3.5	967.5 ± 3.5	977.9 ± 3.5	987.5 ± 3.5	996.5 ± 3.5	1004.5 ± 3.5	1010.2 ± 3.5	1012.9 ± 3.6
423.15 K, 700 kPa	947.9 ± 3.5	958.1 ± 3.5	969 ± 3.5	978.2 ± 3.5	987.2 ± 3.5	995.4 ± 3.5	1001.7 ± 3.5	1004.8 ± 3.6

CN(CCO)CCO [N-methyldiethanolamine] + O
mass density [kg/m3]
Settings	x1 = 0.0609	x1 = 0.0916	x1 = 0.1313	x1 = 0.1848	x1 = 0.2608	x1 = 0.3768	x1 = 0.5764	x1 = 1
298.15 K, 100 kPa	1025.2 ± 3	1035.6 ± 3	1043.3 ± 3	1049.7 ± 3	1053.6 ± 3	1052.3 ± 3	1046 ± 3	1036 ± 3.1
303.15 K, 100 kPa	1022.8 ± 3	1032.8 ± 3	1040.9 ± 3	1046.1 ± 3	1049.9 ± 3	1048.6 ± 3	1042.3 ± 3	1032.4 ± 3.1
308.15 K, 100 kPa	1020.3 ± 3	1029.9 ± 3	1037.6 ± 3	1042.5 ± 3	1046.2 ± 3	1044.8 ± 3	1038.4 ± 3	1028.6 ± 3.1
313.15 K, 100 kPa	1017.7 ± 3	1026.9 ± 3	1034.3 ± 3	1038.8 ± 3	1042.4 ± 3	1040.9 ± 3	1034.6 ± 3	1024.8 ± 3.1
318.15 K, 100 kPa	1014.9 ± 3	1023.8 ± 3	1030.8 ± 3	1034.7 ± 3	1038.5 ± 3	1037 ± 3	1030.8 ± 3	1021 ± 3.1
323.15 K, 100 kPa	1012 ± 3	1020.6 ± 3	1027.3 ± 3	1031.1 ± 3	1034.6 ± 3	1033.1 ± 3	1026.9 ± 3	1017.2 ± 3.1
328.15 K, 100 kPa	1009 ± 3	1017.2 ± 3	1023.7 ± 3	1027.3 ± 3	1030.6 ± 3	1029.1 ± 3	1022.9 ± 3	1013.3 ± 3.1
333.15 K, 100 kPa	1005.9 ± 3	1013.8 ± 3	1020.1 ± 3	1023.6 ± 3	1026.6 ± 3	1025 ± 3	1019 ± 3	1009.4 ± 3.1
338.15 K, 100 kPa	1002.7 ± 3	1010.3 ± 3	1016.3 ± 3	1019.8 ± 3	1022.5 ± 3	1020.9 ± 3	1015 ± 3	1005.6 ± 3.1
343.15 K, 100 kPa	999.3 ± 3	1006.7 ± 3	1012.5 ± 3	1015.9 ± 3	1018.4 ± 3	1016.8 ± 3	1010.9 ± 3	1001.7 ± 3.1
348.15 K, 100 kPa	995.9 ± 3	1003 ± 3	1008.5 ± 3	1011.9 ± 3	1014.2 ± 3	1012.6 ± 3	1006.9 ± 3	997.7 ± 3.1
353.15 K, 100 kPa	992.3 ± 3	999.2 ± 3	1004.6 ± 3	1007.7 ± 3	1009.9 ± 3	1008.4 ± 3	1002.7 ± 3	993.8 ± 3.1
358.15 K, 100 kPa	988.7 ± 3	995.3 ± 3	1000.4 ± 3	1003.5 ± 3	1005.2 ± 3	1004.1 ± 3	998.6 ± 3	989.9 ± 3.1
363.15 K, 100 kPa	984.9 ± 3	991.3 ± 3	996.3 ± 3	999.2 ± 3	1000.9 ± 3	999.8 ± 3	994.4 ± 3	985.9 ± 3.1
373.15 K, 700 kPa	977.2 ± 3	982.9 ± 3	987.6 ± 3	990.7 ± 3	992 ± 3	990.6 ± 3	985.7 ± 3	978.6 ± 3.1
383.15 K, 700 kPa	968.8 ± 3	974.1 ± 3	978.5 ± 3	981.4 ± 3	982.6 ± 3	981.4 ± 3	976.9 ± 3	970.3 ± 3.1
393.15 K, 700 kPa	960.2 ± 3	965.2 ± 3	969.3 ± 3	972.1 ± 3	973.3 ± 3	972.2 ± 3	968.1 ± 3	962.1 ± 3.1
403.15 K, 700 kPa	951.2 ± 3	955.9 ± 3	959.8 ± 3	962.5 ± 3	963.7 ± 3	962.9 ± 3	959.3 ± 3	953.9 ± 3.1
413.15 K, 700 kPa	941.9 ± 3	946.4 ± 3	950.1 ± 3	952.7 ± 3	954 ± 3	953.4 ± 3	950.4 ± 3	945.6 ± 3.1
423.15 K, 700 kPa	931.9 ± 3	936.1 ± 3	939.6 ± 3	942.3 ± 3	943.6 ± 3	943.4 ± 3	940.9 ± 3	937 ± 3.1
